{
  "source": "patent US6872562B2",
  "about": "“Herbicide resistant dinitrogen fixing bacteria and method of use” (priority 2001, dated 2005)",
  "key": {"[1]": {"test_system": "TV5866RR soybean inoculated with B. japonicum (USDA 110)", "assay": "Growth cabinet time course of nodule acetylene reduction activity (ARA)", "format": "in vivo, soybean (Glycine max)", "details": "1.68 kg ha^−1 at 5, 12, and 19 DAE", "description": "The time course of nodule activity from 14 to 28 DAE was followed in a series of four runs of an experiment in a growth cabinet. Soybean seeds were sown in N-free potting media in pots constructed of 15-cm diameter polyvinyl chloride pipe. These pipes allow nondestructive measurement of nodule activity by the acetylene reduction assay as described by Purcell et al. (1997). Seeds were inoculated with B. japonicum (USDA 110), and pots were supplied with N-free nutrients. […] Acetylene reduction activity (ARA) was measured at 14, 21, and 28 DAE by passing a 9:1 air to acetylene mixture through the pots at 0.5 L min^−1. After 8 min., 1-mL aliquots of the effluent gas stream were collected from each pot and analyzed for ethylene by gas chromatography. Nitrogenase activity for glyphosate-treated and control plants was similar at 14 DAE, except for Run 4 when ARA was lower for glyphosate-treated plants (Table 5). ARA was 12 to 20% lower for glyphosate-treated plants at 21 DAE in three of the four runs. By 28 DAE, ARA was lower in glyphosate-treated plants only in Run 2 and was greater than control plants in Run 1."}, "[2]": {"test_system": "GR soybean cultivars A5901RR and DK5961RR", "assay": "Field experiments at Keiser and Fayetteville, Arkansas: biomass and seed yield", "format": "in vivo, soybean (Glycine max)", "procedure": "Field experiments were conducted at Fayetteville and Keiser, Ark., to evaluate the response of GR soybean cultivars to foliar applications of glyphosate under field conditions susceptible to drought stress. […] Delannay et al. (1995) reported three experiments out of 58 in which yields were less than 1500 kg ha^−1, but there was no indication as to the cause of these low yields. The Fayetteville experiment was conducted on a Pembroke silt loam (Ultic Paleudalfs) on 15-cm-high beds spaced 1 m apart. Water was applied as needed until mid-reproductive development (R5) with sprinkle irrigation. At Keiser the soil was a Sharkey silty-clay (Vertic Haplaquepts), and soybean was planted on a flat seedbed with rows 0.96 m apart. Irrigation was applied with an overhead, lateral-move system.\nExperiments at both locations were a factorial of two cultivars and five herbicide treatments in a randomized complete block design with four replications. Plots were four rows wide by 9 m long. […] The seeding rate was 370,000 ha^−1 at both locations.\nHerbicides were applied as a broadcast treatment, sprayed over-the-top of the canopy with a CO2-powered backpack sprayer in a volume of 93 L ha^−1. […] All herbicide treatments contained appropriate surfactants. Plants were at V1, V4, and V9 development stages at 7, 21, and 35 DAE application timings, respectively, at both locations. R2 applications were made at 45 and 48 DAE at Fayetteville and Keiser, respectively. Plots were maintained weed free by hand weeding as needed. Four replications of the non-nodulating isoline of the cultivar ‘Lee’ were included at each location as an indicator of plant-available soil nitrogen.\nSamples were prepared and analyzed for total nitrogen as previously described. Seed yield was determined by harvesting 4.5 m from each of the center two rows. Average seed mass was determined from a random sample of 100 seeds. Biomass data were evaluated by comparing the means±standard errors between herbicide treatments within a cultivar and sample date. […]"}, "[3]": {"test_system": "B. japonicum (strain USDA 110)", "assay": "Growth of B. japonicum in defined liquid media with glyphosate up to 10 mM (Example 6)", "format": "cell-based", "details": "Bradyrhizobium japonicum, 216 h, read-out: Growth inhibition compared to the control without glyphosate", "procedure": "The defined media consists of 25 mM arabinose as the carbon source, 15 mM (NH4)2SO4, 0.7 mM MgSO4, 0.4 mM CaCl2, 20 mM NaCl, 2.5 mM K2HPO4, and 40 mM MOPS (3-[N-morpholino]propane-sulfonic acid), at pH 6.8, plus the appropriate micronutrients. […] These colonies were removed and stored in frozen culture in 50% sterile glycerol."}, "[4]": {"test_system": "B. japonicum (strain USDA 110)", "assay": "B. japonicum growth in culture with increasing glyphosate (Example 12)", "format": "cell-based", "details": "Bradyrhizobium japonicum, 168 h; read-out: Growth inhibition relative to the control", "procedure": "0.1, 1, 3, and 5 mM. […] At concentrations as low as 0.01 mM, B. japonicum growth was inhibited 18% relative to the control (FIG. 4). At a concentration of 0.1 mM, growth was inhibited approximately 40% relative to the control."}, "[5]": {"test_system": "Strains USDA 123 and 138", "details": "5 mM concentration; cited from earlier work"}},
  "data": [
    {"smiles": "O=C(O)CNCP(=O)(O)O", "note": "[glyphosate, N-(phosphonomethyl)glycine]", "values": [
      {"measurement": "Acetylene reduction activity (mean ± SE)", "setting": "[1]; Run 1, 14 DAE", "value": "33 ± 2", "unit": "μmol C2H4 plant^−1 h^−1"},
      {"measurement": "Acetylene reduction activity (mean ± SE)", "setting": "[1]; Run 1, 21 DAE", "value": "45 ± 3", "unit": "μmol C2H4 plant^−1 h^−1"},
      {"measurement": "Acetylene reduction activity (mean ± SE)", "setting": "[1]; Run 1, 28 DAE", "value": "76 ± 7", "unit": "μmol C2H4 plant^−1 h^−1"},
      {"measurement": "Acetylene reduction activity (mean ± SE)", "setting": "[1]; Run 2, 14 DAE", "value": "23 ± 3", "unit": "μmol C2H4 plant^−1 h^−1"},
      {"measurement": "Acetylene reduction activity (mean ± SE)", "setting": "[1]; Run 2, 21 DAE", "value": "53 ± 6", "unit": "μmol C2H4 plant^−1 h^−1"},
      {"measurement": "Acetylene reduction activity (mean ± SE)", "setting": "[1]; Run 2, 28 DAE", "value": "70 ± 4", "unit": "μmol C2H4 plant^−1 h^−1"},
      {"measurement": "Acetylene reduction activity (mean ± SE)", "setting": "[1]; Run 3, 14 DAE", "value": "57 ± 13", "unit": "μmol C2H4 plant^−1 h^−1"},
      {"measurement": "Acetylene reduction activity (mean ± SE)", "setting": "[1]; Run 3, 21 DAE", "value": "75 ± 9", "unit": "μmol C2H4 plant^−1 h^−1"},
      {"measurement": "Acetylene reduction activity (mean ± SE)", "setting": "[1]; Run 3, 28 DAE", "value": "115 ± 13", "unit": "μmol C2H4 plant^−1 h^−1"},
      {"measurement": "Acetylene reduction activity (mean ± SE)", "setting": "[1]; Run 4, 14 DAE", "value": "28 ± 4", "unit": "μmol C2H4 plant^−1 h^−1"},
      {"measurement": "Acetylene reduction activity (mean ± SE)", "setting": "[1]; Run 4, 21 DAE", "value": "56 ± 3", "unit": "μmol C2H4 plant^−1 h^−1"},
      {"measurement": "Acetylene reduction activity (mean ± SE)", "setting": "[1]; Run 4, 28 DAE", "value": "107 ± 14", "unit": "μmol C2H4 plant^−1 h^−1"},
      {"measurement": "Soybean seed yield", "setting": "[2]; Fayetteville, A5901RR, glyphosate 1: 7 & 21 DAE", "value": 2053, "unit": "a kg ha^−1"},
      {"measurement": "Soybean seed yield", "setting": "[2]; Fayetteville, A5901RR, glyphosate 2: 7 & 49 DAE", "value": 2057, "unit": "a kg ha^−1"},
      {"measurement": "Soybean seed yield", "setting": "[2]; Fayetteville, A5901RR, glyphosate 3: 21 & 35 DAE", "value": 1999, "unit": "a kg ha^−1"},
      {"measurement": "Soybean seed yield", "setting": "[2]; Fayetteville, DK5961RR, glyphosate 1: 7 & 21 DAE", "value": 1854, "unit": "a kg ha^−1"},
      {"measurement": "Soybean seed yield", "setting": "[2]; Fayetteville, DK5961RR, glyphosate 2: 7 & 49 DAE", "value": 1798, "unit": "a kg ha^−1"},
      {"measurement": "Soybean seed yield", "setting": "[2]; Fayetteville, DK5961RR, glyphosate 3: 21 & 35 DAE", "value": 1992, "unit": "a kg ha^−1"},
      {"measurement": "Biomass vs untreated check", "setting": "[2]; Keiser, A5901RR, 92 DAE", "value": "significantly less biomass"},
      {"measurement": "Soybean seed yield", "setting": "[2]; Keiser, A5901RR, glyphosate 1: 1.68 kg ha^−1 at 7 & 21 DAE", "value": 974, "unit": "b kg ha^−1"},
      {"measurement": "Soybean seed yield", "setting": "[2]; Keiser, A5901RR, glyphosate 2: 1.68 kg ha^−1 at 7 & 49 DAE", "value": 1138, "unit": "ab kg ha^−1"},
      {"measurement": "Soybean seed yield", "setting": "[2]; Keiser, A5901RR, glyphosate 3: 1.68 kg ha^−1 at 21 & 35 DAE", "value": 1050, "unit": "ab kg ha^−1"},
      {"measurement": "Yield vs check", "setting": "[2]; Keiser, A5901RR, glyphosate at 7 followed by 21 DAE", "value": "significantly lower yield"},
      {"measurement": "Biomass vs other treatments", "setting": "[2]; Keiser, DK5961RR, 92 DAE, glyphosate at 7 followed by 21 DAE or at 7 followed by 49 DAE", "value": "tended to be lower"},
      {"measurement": "Soybean seed yield", "setting": "[2]; Keiser, DK5961RR, glyphosate 1: 7 & 21 DAE", "value": 1197, "unit": "ab kg ha^−1"},
      {"measurement": "Soybean seed yield", "setting": "[2]; Keiser, DK5961RR, glyphosate 2: 7 & 49 DAE", "value": 989, "unit": "b kg ha^−1"},
      {"measurement": "Soybean seed yield", "setting": "[2]; Keiser, DK5961RR, glyphosate 3: 21 & 35 DAE", "value": 1291, "unit": "a kg ha^−1"},
      {"measurement": "Yield decrease", "setting": "[2]; Keiser, DK5961RR, glyphosate at 7 followed by 21 DAE", "value": 24, "unit": "%"},
      {"measurement": "Yield lower than untreated check", "setting": "[2]; Keiser, DK5961RR, glyphosate at 7 followed by 49 DAE", "value": 8, "unit": "%"},
      {"measurement": "Seed yields vs untreated check", "setting": "[2]; Keiser, DK5961RR, other glyphosate and standard herbicide treatments", "value": "numerically equal to the untreated check"},
      {"measurement": "inhibition at 10000 µM", "setting": "[3]", "value": "~90", "unit": "%"},
      {"measurement": "inhibition at 10 µM", "setting": "[4]", "value": 18, "unit": "%"},
      {"measurement": "inhibition at 100 µM", "setting": "[4]", "value": "~40", "unit": "%"},
      {"measurement": "Inhibition", "setting": "[5]", "value": 100, "unit": "%"}
    ]}
  ]
}
